Residues, ends and D or L forms follow the SMILES beside them.
Tests used:
[1] = biological target: T1, Proteasome Macropain subunit PRE2 (Saccharomyces cerevisiae S288c) (UniProt P30656); experiment: Inhibition of chymotrypsin like activity of yeast 20S proteasome at 80 uM
T1 sequence (whole entry): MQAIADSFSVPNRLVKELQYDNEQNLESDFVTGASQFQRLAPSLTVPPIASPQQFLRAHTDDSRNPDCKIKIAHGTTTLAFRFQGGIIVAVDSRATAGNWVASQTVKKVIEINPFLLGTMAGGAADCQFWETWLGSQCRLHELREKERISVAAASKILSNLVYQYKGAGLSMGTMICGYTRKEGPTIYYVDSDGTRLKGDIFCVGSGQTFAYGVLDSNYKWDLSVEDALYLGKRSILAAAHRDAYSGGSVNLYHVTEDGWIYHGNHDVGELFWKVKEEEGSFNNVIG

[2] = biological target: T2, Proteasome component C5 (Saccharomyces cerevisiae S288c) (UniProt P23724); experiment: Inhibition of post acid activity of yeast 20S proteasome at 80 uM
T2 sequence (whole entry): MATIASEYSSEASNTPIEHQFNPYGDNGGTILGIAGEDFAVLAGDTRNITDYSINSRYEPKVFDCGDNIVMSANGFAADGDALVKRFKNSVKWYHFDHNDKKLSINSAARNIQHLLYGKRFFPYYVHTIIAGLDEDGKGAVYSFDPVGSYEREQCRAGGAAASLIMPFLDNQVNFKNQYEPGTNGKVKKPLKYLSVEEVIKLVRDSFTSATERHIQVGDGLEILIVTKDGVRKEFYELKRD

[3] = biological target: T3, Proteasome Macropain subunit (Saccharomyces cerevisiae S288c) (UniProt P22141); experiment: Inhibition of trypsin like activity of yeast 20S proteasome at 80 uM
T3 sequence (whole entry): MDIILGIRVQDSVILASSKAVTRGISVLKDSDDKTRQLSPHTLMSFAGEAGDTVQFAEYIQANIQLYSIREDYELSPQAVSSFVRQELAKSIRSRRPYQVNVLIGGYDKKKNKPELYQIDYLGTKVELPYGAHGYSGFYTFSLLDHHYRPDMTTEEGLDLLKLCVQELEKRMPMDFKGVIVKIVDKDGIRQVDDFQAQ

[4] = biological target: T2, Proteasome component C5 (Saccharomyces cerevisiae S288c); experiment: Activation of post acid activity of yeast 20S proteasome
[5] = biological target: T4, Proteasome Macropain subunit PRE2 (Saccharomyces cerevisiae S288c, UniProt P30656); experiment: Inhibition of chymotrypsin like activity of yeast 20S proteasome
T4 sequence (P30656 whole entry): T1 sequence (whole entry)

[6] = biological target: T3, Proteasome Macropain subunit (Saccharomyces cerevisiae S288c); experiment: Activation of trypsin like activity of yeast 20S proteasome
[7] = biological target: T5, Proteasome component C5 (Saccharomyces cerevisiae S288c, UniProt P23724); experiment: Inhibition of post acid activity of yeast 20S proteasome
T5 sequence (P23724 whole entry): T2 sequence (whole entry)

[8] = biological target: T6, Proteasome Macropain subunit (Saccharomyces cerevisiae S288c, UniProt P22141); experiment: Inhibition of trypsin like activity of yeast 20S proteasome
T6 sequence (P22141 whole entry): T3 sequence (whole entry)

[9] = biological target: T1, Proteasome Macropain subunit PRE2 (Saccharomyces cerevisiae S288c); experiment: Activation of chymotrypsin like activity of yeast 20S proteasome
[10] = biological target: T3, Proteasome Macropain subunit (Saccharomyces cerevisiae S288c); experiment: Inhibition of trypsin like activity of yeast 20S proteasome at 625 uM
[11] = biological target: T1, Proteasome Macropain subunit PRE2 (Saccharomyces cerevisiae S288c); experiment: Inhibition of chymotrypsin like activity of yeast 20S proteasome at 625 uM
[12] = biological target: T2, Proteasome component C5 (Saccharomyces cerevisiae S288c); experiment: (§1) Inhibition of post acid activity of yeast 20S proteasome at 625 uM
[13] = biological target: T5, Proteasome component C5; experiment: as §1

| inhibition [1] | inhibition [2] | inhibition [3] | inhibition [10] | Compound | Ki [5] | further results |
| --- | --- | --- | --- | --- | --- | --- |
| < 10% | < 10% | < 10% | – | CCCCCCCCCCCCCCCC(=O)OC | – | – |
| – | < 10% | – | – | CCCCCCCC(=O)N[C@@H](Cc1ccc(O)cc1)C(=O)N[C@@H](CCC(=O)O)C(=O)N[C@@H](CC(C)C)C(=O)O (HELM PEPTIDE1{[CCCCCCCC(=O)[*:2]].Y.E.L}$$$$V2.0) | > 80 µM | Activity [6]: 1.9 |
| < 10% | – | < 10% | – | CCCCCCCCCC(=O)N[C@@H](Cc1ccc(O)cc1)C(=O)N[C@@H](CCC(=O)O)C(=O)N[C@@H](CC(C)C)C(=O)O (HELM PEPTIDE1{[CCCCCCCCCC(=O)[*:2]].Y.E.L}$$$$V2.0) | – | Ki [7]: 72 µM |
| < 10% | – | – | – | CCCCCCCCCCCC(=O)N[C@@H](Cc1ccc(O)cc1)C(=O)N[C@@H](CCC(=O)O)C(=O)N[C@@H](CC(C)C)C(=O)O (HELM PEPTIDE1{[CCCCCCCCCCCC(=O)[*:2]].Y.E.L}$$$$V2.0) | – | Ki [8]: > 80 µM; Ki [7]: 62 µM |
| < 10% | – | – | – | CCCCCCCCCCCCCC(=O)N[C@H](C(=O)N[C@H](C(=O)N[C@H](C(=O)N[C@@H](Cc1ccccc1)C(=O)N[C@@H](CC(=O)O)C(=O)N[C@@H](Cc1ccc(O)cc1)C(=O)O)[C@@H](C)O)[C@@H](C)CC)[C@@H](C)O (HELM PEPTIDE1{[CCCCCCCCCCCCCC(=O)[*:2]].T.I.T.F.D.Y}$$$$V2.0) | – | Ki [8]: 78 µM; Activity [4]: 1.3 |
| – | – | – | < 10% | H-TITYDF-OH | – | Ki [7]: > 625 µM; inhibition [11]: < 10% |
| – | – | – | < 10% | H-TVTYDY-OH | – | inhibition [12]: < 10%; inhibition [11]: < 10% |

Further lines, the compound ahead of its results:

| Compound | inhibition [1] | inhibition [2] | inhibition [3] | inhibition [10] | Ki [5] | further results |
| --- | --- | --- | --- | --- | --- | --- |
| CCCCCCCCCCCCCCC(N)C(=O)O (stereo unspecified) | < 10% | < 10% | < 10% | – | – | – |
| N[C@@H](Cc1ccc(O)cc1)C(=O)N[C@@H](CCC(=O)O)C(=O)N[C@@H](CC(=O)O)C(=O)O (H-Tyr-Glu-Asp-OH) | < 10% | < 10% | < 10% | – | – | – |
| CC(C)C[C@H](NC(=O)[C@H](CCC(=O)O)NC(=O)[C@@H](N)Cc1ccc(O)cc1)C(=O)O (H-Tyr-Glu-Leu-OH) | < 10% | < 10% | < 10% | – | – | – |
| CCCCCCCC(=O)N[C@H](C(=O)N[C@H](C(=O)N[C@H](C(=O)N[C@@H](Cc1ccc(O)cc1)C(=O)N[C@@H](CCCCN)C(=O)N[C@@H](Cc1ccccc1)C(=O)O)[C@@H](C)O)C(C)C)[C@@H](C)O (HELM PEPTIDE1{[CCCCCCCC(=O)[*:2]].T.V.T.Y.K.F}$$$$V2.0) | – | – | – | – | 20 µM | Activity [4]: 1.3; Activity [6]: 1.2 |
| CCCCCCCCCCCCCCCC(=O)N[C@H](C(=O)N[C@H](C(=O)N[C@H](C(=O)N[C@@H](Cc1ccc(O)cc1)C(=O)N[C@@H](CCCCN)C(=O)N[C@@H](Cc1ccccc1)C(=O)O)[C@@H](C)O)C(C)C)[C@@H](C)O (HELM PEPTIDE1{[CCCCCCCCCCCCCCCC(=O)[*:2]].T.V.T.Y.K.F}$$$$V2.0) | – | – | – | – | – | Activity [9]: 1.6 |
| CCCCCCCCCCCCCCCCCC(=O)N[C@H](C(=O)N[C@H](C(=O)N[C@H](C(=O)N[C@@H](Cc1ccccc1)C(=O)N[C@@H](CC(=O)O)C(=O)N[C@@H](Cc1ccc(O)cc1)C(=O)O)[C@@H](C)O)[C@@H](C)CC)[C@@H](C)O (HELM PEPTIDE1{[CCCCCCCCCCCCCCCCCC(=O)[*:2]].T.I.T.F.D.Y}$$$$V2.0) | – | – | – | – | 39 µM | Activity [4]: 1.3; Activity [6]: 1.6 |
| H-TITYEY-OH | – | – | – | < 10% | – | inhibition [12]: < 10%; inhibition [11]: < 10% |
| H-TITYKF-OH | – | – | – | < 10% | 151 µM | Ki [13]: 260 µM |
| H-TVTYKL-OH | – | – | – | < 10% | 545 µM | inhibition [12]: < 10% |

Reference: ChEMBL document CHEMBL1148514, “Development of lipopeptides for inhibiting 20S proteasomes” (Bioorg Med Chem Lett, 2006)
